Reference: ChEMBL document CHEMBL4699466, “Isolation, reactivity, pharmacological activities and total synthesis of hispanolone and structurally related diterpenes from Labiatae plants” (Bioorg Med Chem Lett, 2020)

Experiments:
RAW264.7 = test: Antiinflammatory activity against mouse RAW264.7 cells assessed as inhibition of LPS-induced nitrite accumulation at 10 uM preincubated for 30 mins followed by LPS-stimulation and measured after 24 hrs by Griess reagent based assay relative to control; assay type: functional; parameters: scale not given: the % may be the effect or the level left; details: time 24.5 hrs
Neutrophil [1] = test: Antiinflammatory activity in human neutrophils assessed as inhibition of elastase release at 10 uM relative to control; assay type: functional; parameters: scale not given: the % may be the effect or the level left
Acetylcholinesterase = molecular target: T1, Acetylcholinesterase (Rattus norvegicus, UniProt P37136); test: Inhibition of Sprague-Dawley rat acetylcholinesterase using acetylthiocholine iodide as substrate measured at 30 secs for 5 mins by Ellman's method
T1 sequence (P37136 whole entry): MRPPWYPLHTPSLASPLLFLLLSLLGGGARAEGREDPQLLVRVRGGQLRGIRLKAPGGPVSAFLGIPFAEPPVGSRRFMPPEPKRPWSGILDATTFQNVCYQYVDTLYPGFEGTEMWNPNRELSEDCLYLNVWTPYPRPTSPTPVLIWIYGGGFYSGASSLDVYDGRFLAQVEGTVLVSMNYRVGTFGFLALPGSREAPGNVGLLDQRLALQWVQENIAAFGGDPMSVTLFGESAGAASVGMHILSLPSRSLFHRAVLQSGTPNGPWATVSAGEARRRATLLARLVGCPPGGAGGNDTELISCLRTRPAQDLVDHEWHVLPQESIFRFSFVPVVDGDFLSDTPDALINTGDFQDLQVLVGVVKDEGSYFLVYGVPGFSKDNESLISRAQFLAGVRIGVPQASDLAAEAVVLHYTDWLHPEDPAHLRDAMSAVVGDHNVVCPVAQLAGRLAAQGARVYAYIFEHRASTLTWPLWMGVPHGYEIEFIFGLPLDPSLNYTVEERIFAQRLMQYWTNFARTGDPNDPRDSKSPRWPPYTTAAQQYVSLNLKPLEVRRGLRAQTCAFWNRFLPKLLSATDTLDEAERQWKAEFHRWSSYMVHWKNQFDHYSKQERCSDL

Neutrophil [2] = test: Antiinflammatory activity in human neutrophils assessed as inhibition of fMLF/cytochalasin B-induced superoxide anion generation at 10 uM relative to control; assay type: functional; parameters: scale not given: the % may be the effect or the level left
Neutrophil [3] = test: Antiinflammatory activity in human neutrophils assessed as inhibition of elastase release; assay type: functional, cell-based
Neutrophil [4] = test: Antiinflammatory activity in human neutrophils assessed as inhibition of fMLF/cytochalasin B-induced superoxide anion generation; assay type: functional, cell-based
Sulfotransferase 1E1 = molecular target: T2, Sulfotransferase 1E1 (Homo sapiens, UniProt P49888); test: Inhibition of estrogen sulfotransferase in human liver cytosol incubated for 30 mins in presence of [3H]-estradiol and adenosine -3'-phosphate 5'-phosphosulfate by liquid scintillation counting method; assay type: subcellular
T2 sequence (P49888 whole entry): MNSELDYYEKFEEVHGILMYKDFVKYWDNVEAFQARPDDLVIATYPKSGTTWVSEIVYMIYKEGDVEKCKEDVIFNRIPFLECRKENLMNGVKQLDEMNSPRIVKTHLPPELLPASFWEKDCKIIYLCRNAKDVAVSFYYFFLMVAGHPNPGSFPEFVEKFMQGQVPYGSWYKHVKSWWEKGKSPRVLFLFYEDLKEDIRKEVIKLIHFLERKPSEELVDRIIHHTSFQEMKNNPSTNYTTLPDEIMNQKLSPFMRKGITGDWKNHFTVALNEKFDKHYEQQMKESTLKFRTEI

[5] = Antagonist activity at PAF receptor in rabbit platelet membrane assessed as inhibition of [3H]-PAF binding to PAF receptor; assay type: cell membranes, Oryctolagus cuniculus, Cell membrane
[6] = Metal chelating activity of the compound assessed as Fe2+-compound complex formation at 0.500 mg/ml incubated for 10 mins in presence of ferrozine solution relative to control; details: dose 0.5 mg/ml
[7] = Metal chelating activity of the compound assessed as Fe2+-compound complex formation at 1 mg/ml incubated for 10 mins in presence of ferrozine solution relative to control
Mus musculus = organism: Mus musculus; test: cells; details: Swiss-Taconi
Description: Antiinflammatory activity in Swiss-Taconi mouse assessed as reduction in TPA-induced ear edema

[8] = Metal chelating activity of the compound assessed as Fe2+-compound complex formation at 0.250 mg/ml incubated for 10 mins in presence of ferrozine solution relative to control; details: dose 0.25 mg/ml
[9] = molecular target: 11-beta-hydroxysteroid dehydrogenase 1 (Homo sapiens) (UniProt P28845); test: Inhibition of human 11beta-HSD1 expressed in HEK-293 cells assessed as residual activity at […] using radiolabeled cortisone as substrate by scintillation counting; assay type: cell-based; details: HEK293
Chain of 11-beta-hydroxysteroid dehydrogenase 1 (Homo sapiens) (P28845 whole entry, looked up): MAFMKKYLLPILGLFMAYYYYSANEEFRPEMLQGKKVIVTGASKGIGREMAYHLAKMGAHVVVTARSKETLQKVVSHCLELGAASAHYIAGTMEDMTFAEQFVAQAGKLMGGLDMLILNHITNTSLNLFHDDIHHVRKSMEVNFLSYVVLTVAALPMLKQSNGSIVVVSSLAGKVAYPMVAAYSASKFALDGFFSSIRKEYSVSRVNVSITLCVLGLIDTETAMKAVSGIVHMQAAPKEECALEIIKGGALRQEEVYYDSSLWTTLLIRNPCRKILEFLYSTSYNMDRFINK

CC1=C(CCC2=CC(=O)OC2O)[C@@]2(C)CCCC(C)(C)[C@@H]2CC1=O (some centres undefined)
Activity (RAW264.7): 84.1%

CC1=C(CCc2ccoc2)[C@@]2(C)CCCC(C)(C)[C@@H]2CC1=O
Activity (Neutrophil [1]): 70.06% | IC50 (Acetylcholinesterase): 38.5 µM | Activity (Neutrophil [2]): 58.43% | IC50 (Neutrophil [3]): 5.42 µM | IC50 (Neutrophil [4]): 8.48 µM | IC50 (Sulfotransferase 1E1): 19.8 µM

C[C@@H]1C(=O)C[C@H]2C(C)(C)CCC[C@]2(C)[C@@]12CC[C@]1(C=COC1)O2
IC50 [5]: 4 µM

C[C@@H]1C(=O)C[C@H]2C(C)(C)CCC[C@]2(C)[C@@]1(O)CCc1ccoc1
Activity [6]: 97% | Activity [7]: 97.3% | IC50 (Mus musculus): 1.05 µM | Activity [8]: 96% | Activity [9]: 20%

CCC1=C(Cc2ccoc2)C(=O)[C@@]2(C)CCCC(C)(C)[C@@H]2C1
Activity (RAW264.7): 35.53%
